Experimental data: publication PMC10366214, “The anti-Alzheimer potential of novel spiroindolin-1,2-diazepine derivatives as targeted cholinesterase inhibitors with modified substituents” (Scientific Reports, 2023)
Where two headings read alike, the source gives them in different places.

Key:
AChE [1] = target: T1, AChE (Homo sapiens, UniProt P22303); assay: biochemical; details: for inhibition at 50 µM: read-out: AChE % inhibition at 50 µM
Procedure: (§1) Cholinesterase inhibitory activities of all analogs were evaluated spectrometrically using the modified Ellman method as previously reported[40],[41]. […] The absorbance of each well was measured at 415 nm using a microplate reader. IC50 values and inhibition values were calculated with the software GraphPad Prism as the mean of three independent experiments and are expressed as mean ± SEM.

BChE [2] = target: T2, BChE (Homo sapiens, UniProt P06276); assay: BChE inhibition, modified Ellman method; format: biochemical; details: for inhibition at 50 µM: read-out: BChE % inhibition at 50 µM
T2 sequence (P06276 29-602): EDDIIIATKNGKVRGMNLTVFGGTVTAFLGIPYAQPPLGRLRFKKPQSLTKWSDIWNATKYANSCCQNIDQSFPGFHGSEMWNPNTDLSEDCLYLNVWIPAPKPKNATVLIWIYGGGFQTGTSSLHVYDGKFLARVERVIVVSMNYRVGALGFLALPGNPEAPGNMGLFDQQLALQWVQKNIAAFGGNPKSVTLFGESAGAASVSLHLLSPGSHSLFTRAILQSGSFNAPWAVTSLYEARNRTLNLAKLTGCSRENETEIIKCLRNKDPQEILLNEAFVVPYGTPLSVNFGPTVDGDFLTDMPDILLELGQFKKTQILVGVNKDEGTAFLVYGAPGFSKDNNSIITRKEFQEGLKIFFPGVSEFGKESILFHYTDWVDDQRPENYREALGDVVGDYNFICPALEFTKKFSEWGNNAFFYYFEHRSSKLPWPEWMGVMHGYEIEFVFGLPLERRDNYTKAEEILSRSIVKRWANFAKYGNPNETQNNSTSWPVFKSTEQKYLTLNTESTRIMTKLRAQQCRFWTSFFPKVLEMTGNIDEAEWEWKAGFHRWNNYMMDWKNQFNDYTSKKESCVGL
Procedure: as §1

BChE [3] = target: T2, BChE; details: cited from earlier work
AChE [4] = target: T1, AChE; details: cited from earlier work
[5] = 50 µM, mean ± S.E of three to five independent experiments
[6] = mean ± S.E of three to five independent experiments, read-out: AChE IC50
[7] = mean ± S.E of three to five independent experiments, read-out: BChE IC50

T1 sequence (P22303 32-614): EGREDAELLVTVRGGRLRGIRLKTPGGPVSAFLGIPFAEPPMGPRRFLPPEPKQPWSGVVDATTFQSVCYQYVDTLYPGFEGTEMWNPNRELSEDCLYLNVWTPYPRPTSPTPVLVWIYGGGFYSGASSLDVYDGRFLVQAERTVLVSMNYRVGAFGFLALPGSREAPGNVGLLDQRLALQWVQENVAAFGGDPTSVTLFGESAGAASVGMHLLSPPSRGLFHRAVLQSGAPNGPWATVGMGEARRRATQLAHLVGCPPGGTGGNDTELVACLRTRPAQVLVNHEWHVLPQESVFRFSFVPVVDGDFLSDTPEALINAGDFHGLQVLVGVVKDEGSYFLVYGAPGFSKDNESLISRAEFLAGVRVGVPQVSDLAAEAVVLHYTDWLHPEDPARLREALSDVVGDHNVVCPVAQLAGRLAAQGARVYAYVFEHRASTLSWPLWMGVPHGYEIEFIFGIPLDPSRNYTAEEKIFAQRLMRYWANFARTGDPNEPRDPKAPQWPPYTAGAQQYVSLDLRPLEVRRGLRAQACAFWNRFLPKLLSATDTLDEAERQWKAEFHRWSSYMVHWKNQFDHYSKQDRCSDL

N#CC1=C(N)NNC(Nc2ccc(Cl)cc2)=C([N+](=O)[O-])C12C(=O)Nc1ccc([N+](=O)[O-])cc12 (stereo not shown) [Compound 5k, 3-amino-7-((4-chlorophenyl)amino)-5',6-dinitro-2'-oxo-1,2-dihydrospiro[[1,2]diazepine-5,3'-indoline]-4-carbonitrile]
inhibition at 50 µM (AChE [1]): 24.6 ± 1.7% | inhibition at 50 µM (BChE [2]): 17.9 ± 1.81%

COc1ccc(OC)c(NC2=C([N+](=O)[O-])C3(C(=O)Nc4ccc([N+](=O)[O-])cc43)C(C#N)=C(N)NN2)c1 (stereo not shown) [Compound 5j, 3-amino-7-((2,5-dimethoxyphenyl)amino)-5',6-dinitro-2'-oxo-1,2-dihydrospiro[[1,2]diazepine-5,3'-indoline]-4-carbonitrile]
IC50 (AChE [1]): 20.9 ± 2.96 µM | inhibition at 50 µM (AChE [1]): 61.7 ± 3.77% | IC50 (BChE [2]): 17.4 ± 3.29 µM | inhibition at 50 µM (BChE [2]): 58.4 ± 3.55%

Cc1ccccc1NC1=C([N+](=O)[O-])C2(C(=O)Nc3c(C(F)(F)F)cccc32)C(C#N)=C(N)NN1 (stereo not shown) [Compound 5t, 3-amino-6-nitro-2'-oxo-7-(o-tolylamino)-7'-(trifluoromethyl)-1,2-dihydrospiro[[1,2]diazepine-5,3'-indoline]-4-carbonitrile]
inhibition at 50 µM (AChE [1]; [5]): 24.7 ± 1.94% | inhibition at 50 µM (BChE [2]; [5]): 7.31 ± 5.07%

Cc1ccc(Cn2cc(COc3cccc(C4Nc5ccccc5NC5=C4C(=O)CC(C)(C)C5)c3)nn2)cc1 (stereo not shown) [compound E]
IC50 (BChE [3]): 0.2 ± 0.002 µM | AChE Inhibition % at 30 μM (AChE [4]; 30 μM): 12.9%

N#CC1=C(N)NNC(Nc2ccc(Cl)cc2)=C([N+](=O)[O-])C12C(=O)Nc1ccc(Cl)cc12 (stereo not shown) [Compound 5e, 3-amino-5'-chloro-7-((4-chlorophenyl)amino)-6-nitro-2'-oxo-1,2-dihydrospiro[[1,2]diazepine-5,3'-indoline]-4-carbonitrile]
inhibition at 50 µM (AChE [1]; [5]): 13.4 ± 3.34% | BChE % inhibition at 50 µM (BChE [2]; [5]): Not active

N#CC1=C(N)NNC(Nc2ccc(O)cc2)=C([N+](=O)[O-])C12C(=O)Nc1c(C(F)(F)F)cccc12 (stereo not shown) [Compound 5v, 3-amino-7-((4-hydroxyphenyl)amino)-6-nitro-2'-oxo-7'-(trifluoromethyl)-1,2-dihydrospiro[[1,2]diazepine-5,3'-indoline]-4-carbonitrile]
inhibition at 50 µM (AChE [1]; [5]): 17.7 ± 1.82% | inhibition at 50 µM (BChE [2]; [5]): 13 ± 1.14%

COc1ccc(OC)c(NC2=C([N+](=O)[O-])C3(C(=O)Nc4c(Br)cc(Br)cc43)C(C#N)=C(N)NN2)c1 (stereo not shown) [Compound 5p, 3-amino-5',7'-dibromo-7-((2,5-dimethoxyphenyl)amino)-6-nitro-2'-oxo-1,2-dihydrospiro[[1,2]diazepine-5,3'-indoline]-4-carbonitrile]
inhibition at 50 µM (AChE [1]; [5]): 73.4 ± 4.21% | IC50 (AChE [1]; [6]): 11.3 ± 1.65 µM | inhibition at 50 µM (BChE [2]; [5]): 59.3 ± 3.15% | IC50 (BChE [2]; [7]): 37.9 ± 4.85 µM

COc1ccc(NC2=C([N+](=O)[O-])C3(C(=O)Nc4c(Cl)cc(Cl)cc43)C(C#N)=C(N)NN2)cc1 (stereo not shown) [Compound 5n, 3-amino-5',7'-dichloro-7-((4-methoxyphenyl)amino)-6-nitro-2'-oxo-1,2-dihydrospiro[[1,2]diazepine-5,3'-indoline]-4-carbonitrile]
inhibition at 50 µM (AChE [1]; [5]): 35.4 ± 7.54% | inhibition at 50 µM (BChE [2]; [5]): 46.5 ± 4.77%

N#CC1=C(N)NNC(Nc2ccc(O)cc2)=C([N+](=O)[O-])C12C(=O)Nc1c(Br)cc(Br)cc12 (stereo not shown) [Compound 5r, 3-amino-5',7'-dibromo-7-((4-hydroxyphenyl)amino)-6-nitro-2'-oxo-1,2-dihydrospiro[[1,2]diazepine-5,3'-indoline]-4-carbonitrile]
inhibition at 50 µM (AChE [1]; [5]): 46.7 ± 1.92% | inhibition at 50 µM (BChE [2]; [5]): 51.7 ± 1.29% | IC50 (BChE [2]; [7]): 45.7 ± 5.62 µM

N#CC1=C(N)NNC(Nc2cccc(O)c2)=C([N+](=O)[O-])C12C(=O)Nc1c(Br)cc(Br)cc12 (stereo not shown) [Compound 5q, 3-amino-5',7'-dibromo-7-((3-hydroxyphenyl)amino)-6-nitro-2'-oxo-1,2-dihydrospiro[[1,2]diazepine-5,3'-indoline]-4-carbonitrile]
inhibition at 50 µM (AChE [1]; [5]): 63.1 ± 4.43% | IC50 (AChE [1]; [6]): 12 ± 2.33 µM | inhibition at 50 µM (BChE [2]; [5]): 37.1 ± 0.84%

Cc1ccc(NC2=C([N+](=O)[O-])C3(C(=O)Nc4ccc([N+](=O)[O-])cc43)C(C#N)=C(N)NN2)cc1 (stereo not shown) [Compound 5g, 3-amino-5',6-dinitro-2'-oxo-7-(p-tolylamino)-1,2-dihydrospiro[[1,2]diazepine-5,3'-indoline]-4-carbonitrile]
IC50 (AChE [1]): 5.88 ± 0.84 µM | inhibition at 50 µM (AChE [1]): 66.3 ± 6.57% | inhibition at 50 µM (BChE [2]): 24.4 ± 2.96%

Cc1ccccc1NC1=C([N+](=O)[O-])C2(C(=O)Nc3ccc([N+](=O)[O-])cc32)C(C#N)=C(N)NN1 (stereo not shown) [Compound 5f, 3-amino-5',6-dinitro-2'-oxo-7-(o-tolylamino)-1,2-dihydrospiro[[1,2]diazepine-5,3'-indoline]-4-carbonitrile]
IC50 (AChE [1]): 22.4 ± 2.11 µM | inhibition at 50 µM (AChE [1]): 59.6 ± 6.75% | inhibition at 50 µM (BChE [2]): 23.3 ± 3.97%

COc1ccc(NC2=C([N+](=O)[O-])C3(C(=O)Nc4ccc(Cl)cc43)C(C#N)=C(N)NN2)cc1 (stereo not shown) [Compound 5b, 3-amino-5'-chloro-7-((4-methoxyphenyl)amino)-6-nitro-2'-oxo-1,2-dihydrospiro[[1,2]diazepine-5,3'-indoline]-4-carbonitrile]
inhibition at 50 µM (AChE [1]; [5]): 42.8 ± 2.15% | inhibition at 50 µM (BChE [2]; [5]): 36.8 ± 2.1%

Cc1ccc(NC2=C([N+](=O)[O-])C3(C(=O)Nc4ccc([N+](=O)[O-])cc43)C(C#N)=C(N)NN2)cc1C (stereo not shown) [Compound 5h, 3-amino-7-((3,4-dimethylphenyl)amino)-5',6-dinitro-2'-oxo-1,2-dihydrospiro[[1,2]diazepine-5,3'-indoline]-4-carbonitrile]
inhibition at 50 µM (AChE [1]): 48.6 ± 2.7% | BChE % inhibition at 50 µM (BChE [2]; [5]): Not active

O=C(CC1(O)C(=O)N(Cc2ccccc2)c2ccccc21)c1ccc(Br)cc1Br (stereo not shown) [compound C]
IC50 (BChE [3]): 0.065 ± 0.008 µM | IC50 (AChE [4]): 0.028 ± 0.003 µM

COc1ccc(NC2=C([N+](=O)[O-])C3(C(=O)Nc4c(C(F)(F)F)cccc43)C(C#N)=C(N)NN2)cc1 (stereo not shown) [Compound 5s, 3-amino-7-((4-methoxyphenyl)amino)-6-nitro-2'-oxo-7'-(trifluoromethyl)-1,2-dihydrospiro[[1,2]diazepine-5,3'-indoline]-4-carbonitrile]
inhibition at 50 µM (AChE [1]; [5]): 56 ± 4.39% | IC50 (AChE [1]; [6]): 17.8 ± 2.79 µM | inhibition at 50 µM (BChE [2]; [5]): 13.4 ± 3.46%

COc1ccc(NC2=C([N+](=O)[O-])C3(C(=O)Nc4ccc([N+](=O)[O-])cc43)C(C#N)=C(N)NN2)cc1 (stereo not shown) [Compound 5i, 3-amino-7-((4-methoxyphenyl)amino)-5',6-dinitro-2'-oxo-1,2-dihydrospiro[[1,2]diazepine-5,3'-indoline]-4-carbonitrile]
inhibition at 50 µM (AChE [1]): 46.1 ± 3.38% | inhibition at 50 µM (BChE [2]): 31.2 ± 3.65%

Cc1ccc(NC2=C([N+](=O)[O-])C3(C(=O)Nc4c(Br)cc(Br)cc43)C(C#N)=C(N)NN2)cc1 (stereo not shown) [Compound 5o, 3-amino-5',7'-dibromo-6-nitro-2'-oxo-7-(p-tolylamino)-1,2-dihydrospiro[[1,2]diazepine-5,3'-indoline]-4-carbonitrile]
inhibition at 50 µM (AChE [1]; [5]): 37.6 ± 4.74% | inhibition at 50 µM (BChE [2]; [5]): 14.1 ± 3.7%

Cc1ccccc1NC1=C([N+](=O)[O-])C2(C(=O)Nc3c(Cl)cc(Cl)cc32)C(C#N)=C(N)NN1 (stereo not shown) [Compound 5m, 3-amino-5',7'-dichloro-6-nitro-2'-oxo-7-(o-tolylamino)-1,2-dihydrospiro[[1,2]diazepine-5,3'-indoline]-4-carbonitrile]
inhibition at 50 µM (AChE [1]; [5]): 24.8 ± 5.48% | inhibition at 50 µM (BChE [2]; [5]): 41.9 ± 6.47%

Cc1ccc(NC2=C([N+](=O)[O-])C3(C(=O)Nc4ccc(Cl)cc43)C(C#N)=C(N)NN2)cc1C (stereo not shown) [Compound 5c, 3-amino-5'-chloro-7-((3,4-dimethylphenyl)amino)-6-nitro-2'-oxo-1,2-dihydrospiro[[1,2]diazepine-5,3'-indoline]-4-carbonitrile]
AChE % inhibition at 50 µM (AChE [1]; [5]): Not active | inhibition at 50 µM (BChE [2]; [5]): 37 ± 3.78%

O=C1Nc2ccccc2/C1=C\c1cc[n+](Cc2ccccc2Cl)cc1 [compound B]
IC50 (BChE [3]): 1.37 µM | IC50 (AChE [4]): 0.00044 µM | fold more potent than donepezil (AChE) (AChE [4]; versus donepezil as reference drug): 32 fold

Cc1ccc(NC2=C([N+](=O)[O-])C3(C(=O)Nc4ccc(Cl)cc43)C(C#N)=C(N)NN2)cc1 (stereo not shown) [Compound 5a, 3-amino-5'-chloro-6-nitro-2'-oxo-7-(p-tolylamino)-1,2-dihydrospiro[[1,2]diazepine-5,3'-indoline]-4-carbonitrile]
inhibition at 50 µM (AChE [1]; [5]): 5.37 ± 3.11% | inhibition at 50 µM (BChE [2]; [5]): 18.1 ± 2.88%

COc1ccc(OC)c(NC2=C([N+](=O)[O-])C3(C(=O)Nc4ccc(Cl)cc43)C(C#N)=C(N)NN2)c1 (stereo not shown) [Compound 5d, 3-amino-5'-chloro-7-((2,5-dimethoxyphenyl)amino)-6-nitro-2'-oxo-1,2-dihydrospiro[[1,2]diazepine-5,3'-indoline]-4-carbonitrile]
inhibition at 50 µM (AChE [1]; [5]): 27.8 ± 5.26% | inhibition at 50 µM (BChE [2]; [5]): 19.2 ± 4.07%

N#CC1=C(N)NNC(Nc2cccc(O)c2)=C([N+](=O)[O-])C12C(=O)Nc1c(C(F)(F)F)cccc12 (stereo not shown) [Compound 5u, 3-amino-7-((3-hydroxyphenyl)amino)-6-nitro-2'-oxo-7'-(trifluoromethyl)-1,2-dihydrospiro[[1,2]diazepine-5,3'-indoline]-4-carbonitrile]
inhibition at 50 µM (AChE [1]; [5]): 16.4 ± 0.53% | inhibition at 50 µM (BChE [2]; [5]): 10.4 ± 1.07%
